Data on twelve compounds can be found in patent publication US8431564B2 (Merck Sharp & Dohme B.V., priority 2009, dated 2013).

This test concerns the target T1, human FSH receptor (Homo sapiens, UniProt P23945).
T1 construct: expressed in transfected cells; host or cells: CHO (Chinese Hamster Ovary) cells, stably transfected, cotransfected with CRE-luciferase reporter
T1 sequence (P23945 18-695): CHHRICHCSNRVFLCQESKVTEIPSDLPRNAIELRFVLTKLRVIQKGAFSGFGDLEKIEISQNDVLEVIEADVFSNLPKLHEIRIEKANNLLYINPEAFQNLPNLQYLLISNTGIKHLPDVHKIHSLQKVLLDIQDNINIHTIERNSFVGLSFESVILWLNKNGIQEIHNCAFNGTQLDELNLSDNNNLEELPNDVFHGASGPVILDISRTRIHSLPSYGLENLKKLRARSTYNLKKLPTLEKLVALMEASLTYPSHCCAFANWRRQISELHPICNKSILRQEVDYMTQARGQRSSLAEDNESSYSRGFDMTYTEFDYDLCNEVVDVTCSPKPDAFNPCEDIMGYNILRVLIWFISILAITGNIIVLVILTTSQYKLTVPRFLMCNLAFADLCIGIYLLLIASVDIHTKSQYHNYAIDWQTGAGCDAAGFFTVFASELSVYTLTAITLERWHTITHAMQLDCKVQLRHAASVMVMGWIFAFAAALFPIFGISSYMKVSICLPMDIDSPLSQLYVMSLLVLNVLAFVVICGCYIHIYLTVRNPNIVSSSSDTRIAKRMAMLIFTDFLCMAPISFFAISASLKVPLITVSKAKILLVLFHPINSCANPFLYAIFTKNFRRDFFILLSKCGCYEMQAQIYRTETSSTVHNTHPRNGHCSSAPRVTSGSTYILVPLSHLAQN
The experiment in a line: Agonistic activity at the human FSH receptor expressed in CHO cells (CRE-luciferase reporter). The following applies: CHO cells stably transfected with human FSH receptor and CRE/luciferase reporter; 4 hours incubation; pEC50 is -log EC50; read-out: hFSHRago (CHO luc) pEC50 (converted). The test is classed as cell-based. In outline:
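Stably transfected CHO cells with CRE-driven firefly luciferase reporter, incubated 4 h at 37° C. with compound (0.0316 nM–10.0 μM, duplicate, 1% DMSO final) in insulin/transferrin-supplemented medium. Luminescence after lysis; EC50 relative to compound's own maximum, efficacy as percent of recombinant human FSH maximum.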

Take `COC(=O)[C@@H]1CCCN1C(=O)c1cc2c(cc1OC)CCn1c3c(c(-c4cccs4)c1-2)CCCCN(C(C)(C)C)C3=O` [Compound 26c2, (S)-9-tert-butyl-3-methoxy-14-(thiophen-2-yl)-5,6,10,11,12,13-hexahydroazocino[4′,3′:4,5]pyrrolo[2,1-a]isoquinolin-8(9H)-one-2-carbonyl(1-pyrrolidinyl-2-carboxylate) methyl ester]: the EC50 is 37.2 nM.

For `COc1cc2c(cc1C(=O)N1CCC[C@H]1CO)-c1c(-c3cccs3)c3c(n1CC2)C(=O)N(C(C)(C)C)CCCC3` [Compound 26c3, (S)-9-tert-butyl-3-methoxy-2-(2-hydroxymethyl-1-pyrrolidinylcarbonyl)-14-(thiophen-2-yl)-5,6,10,11,12,13-hexahydroazocino[4′,3′:4,5]pyrrolo[2,1-a]isoquinolin-8(9H)-one], the EC50 was 27.5 nM.

Turning to `COc1cc2c(cc1C(=O)N1CCOCC1)-c1c(-c3cccs3)c3c(n1CC2)C(=O)N(C(C)(C)C)CCCC3` [Compound 26c4, 9-tert-butyl-3-methoxy-2-(4-morpholinylcarbonyl)-14-(thiophen-2-yl)-5,6,10,11,12,13-hexahydroazocino[4′,3′:4,5]pyrrolo[2,1-a]isoquinolin-8(9H)-one], the EC50 is 9.77 nM.

Consider `COc1cc2c(cc1C(=O)NCC(O)CO)-c1c(-c3cccs3)c3c(n1CC2)C(=O)N(C(C)(C)C)CCCC3` (stereo not drawn) [Compound 26c5, 9-tert-butyl-3-methoxy-2-(2,3-dihydroxy-1-propylaminocarbonyl)-14-(thiophen-2-yl)-5,6,10,11,12,13-hexahydroazocino[4′,3′:4,5]pyrrolo[2,1-a]isoquinolin-8(9H)-one], for which the EC50 is 0.871 nM.

Turning to `COCC(O)CNC(=O)c1cc2c(cc1OC)CCn1c3c(c(-c4cccs4)c1-2)CCCCN(C(C)(C)C)C3=O` (stereo not drawn) [Compound 26c6, 9-tert-butyl-3-methoxy-2-(2-hydroxy-3-methoxy-1-propylaminocarbonyl)-14-(thiophen-2-yl)-5,6,10,11,12,13-hexahydroazocino[4′,3′:4,5]pyrrolo[2,1-a]isoquinolin-8(9H)-one], the EC50 is 1.07 nM.

Consider `COc1cc2c(cc1C(=O)NCCO)-c1c(-c3cccs3)c3c(n1CC2)C(=O)N(C(C)(C)C)CCCC3` [Compound 26c7, 9-tert-butyl-2-(2-hydroxyethylaminocarbonyl)-3-methoxy-14-(thiophen-2-yl)-5,6,10,11,12,13-hexahydroazocino[4′,3′:4,5]pyrrolo[2,1-a]isoquinolin-8(9H)-one], for which the EC50 is 0.427 nM.

As to `COc1cc2c(cc1C(=O)N(C)CCO)-c1c(-c3cccs3)c3c(n1CC2)C(=O)N(C(C)(C)C)CCCC3` [Compound 26c8, 9-tert-butyl-2-(N-2-hydroxyethyl,N-methylaminocarbonyl)-3-methoxy-14-(thiophen-2-yl)-5,6,10,11,12,13-hexahydroazocino[4′,3′:4,5]pyrrolo[2,1-a]isoquinolin-8(9H)-one], the EC50 is 5.37 nM.

In the case of `C=CCCNC(=O)c1cc2c(cc1OC)CCn1c3c(c(-c4cccs4)c1-2)CCCCN(C(C)(C)C)C3=O` [Compound 26c9, 9-tert-butyl-2-(4-butenylaminocarbonyl)-3-methoxy-14-(thiophen-2-yl)-5,6,10,11,12,13-hexahydroazocino[4′,3′:4,5]pyrrolo[2,1-a]isoquinolin-8(9H)-one], the EC50 was 0.468 nM.

In the case of `COc1cc2c(cc1C(=O)NCCC(O)CO)-c1c(-c3cccs3)c3c(n1CC2)C(=O)N(C(C)(C)C)CCCC3` (stereo not drawn) [Compound 26c10, 9-tert-butyl-2-(3,4-dihydroxybutylaminocarbonyl)-3-methoxy-14-(thiophen-2-yl)-5,6,10,11,12,13-hexahydroazocino[4′,3′:4,5]pyrrolo[2,1-a]isoquinolin-8(9H)-one], the EC50 was 1.95 nM.

`COc1cc2c(cc1F)-c1c(-c3cccs3)c3c(n1CC2)C(=O)N(C(C)(C)C)CCCC3` [Compound 27c, 9-tert-butyl-2-fluoro-3-methoxy-14-(thiophen-2-yl)-5,6,10,11,12,13-hexahydroazocino[4′,3′:4,5]pyrrolo[2,1-a]isoquinolin-8(9H)-one]: the EC50 was 30.2 nM.

With `COc1cc2c(cc1C(=O)CC[C@@H](O)CO)-c1c(-c3cccs3)c3c(n1CC2)C(=O)N(C(C)(C)C)CCCC3` [Compound 28b, (R)-9-tert-butyl-2-(4,5-dihydroxypentanoyl)-3-methoxy-14-(thiophen-2-yl)-5,6,10,11,12,13-hexahydroazocino[4′,3′:4,5]pyrrolo[2,1-a]isoquinolin-8(9H)-one], the EC50 was 2.63 nM.

As for `COc1cc2c(cc1NS(C)(=O)=O)-c1c(-c3cccs3)c3c(n1CC2)C(=O)N(C(C)(C)C)CCCC3` [Compound 29a, 9-tert-butyl-3-methoxy-2-(methylsulfonamido)-14-(thiophen-2-yl)-5,6,10,11,12,13-hexahydroazocino[4′,3′:4,5]pyrrolo[2,1-a]isoquinolin-8(9H)-one], the EC50 is 1.95 nM.
